Measured values published in US6812034B2, “Fetuin-MGP-mineral complex in serum assayed to determine calcification risk” (The Regents of the University of California, priority 2000, dated 2004).

Experiments:
[1] = test system: aorta calcification in rats treated with vitamin D plus warfarin; experiment: von Kossa staining for calcification in rats treated with vitamin D plus warfarin; type: in vivo, rat; conditions: 84 h; for Histology Score Observer #1 x ± S.D. / Histology Score Observer #2 x ± S.D.: score 0-5
Procedure: (§1) For measurement of mineral accumulation in arteries, each tissue was removed within 30 minutes of death and immediately frozen. Tissues were subsequently washed extensively with buffer and extracted with 1 ml of 10% formic acid for 24 h at room temperature, as described. Calcium levels in serum were determined colorimetrically using cresolphthalein complexone (Sigma) and phosphate levels in serum and in acid tissue extracts were determined calorimetrically as described (Zhu et al. (1994) Cardiology, 85: 370-377). Tissue sectioning and staining were carried out by Biomedical Testing Services, Inc., (San Diego, Calif.).
Male Sprague Dawley rats were fed ad libitum with rodent diet 5001 (Purina Mills Inc., St. Louis, Mo.), a diet that is 0.67% phosphorus and 0.95% calcium by weight. This diet contains 500 μg per kg of phylloquinone and has no added menadione. In all experiments, animals were killed by exsanguination while under metofane anesthetic, and selected tissues were removed immediately and fixed in 10% buffered formalin or frozen at −20° C. for later studies. All animal experiments were approved by the UCSD animal subjects committee.

[2] = serum levels of calcium and phosphate in rats treated with vitamin D plus warfarin; type: in vivo, rat
Procedure: as §1, with “Calif.). […]” for “Calif.).”

[3] = serum levels of calcium, phosphate, MGP and BGP after subcutaneous bisphosphonate; type: in vivo, rat; conditions: for Ionic calcium / total calcium: 8 mg/100 g
Procedure: Rats were fed rodent diet 5001 (Purina Mills Inc., St. […] Etidronate was dissolved with 0.15 M NaCl, titrated to pH 7.4 with dilute NaOH, and administered subcutaneously to forty-day-old male rats. Control animals received injections of 0.15 M NaCl only. […] At the times indicated in FIG. 1, each rat was anesthetized with metofane and a 400 μl sample of blood was withdrawn from the jugular vein. Blood samples were allowed to clot for 15 min at room temperature and serum was obtained after centrifugation in a clinical centrifuge and then frozen rapidly on dry ice and stored at -70° C. until later analysis. The same procedure was followed for the second time course experiment (FIG. 10), with the difference that the etidronate dose was increased to 32 mg per 100 g body weight. […] Two hours later, all rats were injected with etidronate at a dose of 8 mg/100 g (t=0), and 400 μl of blood were removed from each animal at the indicated times for biochemical analyses. […] In neither control group could we detect a significant change in serum levels of calcium, phosphate, or MGP at any time point. […] Rice et al. (1994) J. Bone Min. Res. 9: 567-576). Calcium levels in serum and other samples were determined colorimetrically using cresolphthalein complexone (Sigma) and phosphate levels in serum, effluent fractions, and other samples were determined calorimetrically as described (Chen et al. (1956) Anal. Chem. 28(11): 1756-1758). For determination of ionic calcium, freshly obtained blood samples were immediately placed into a 2.5 ml gold top vacutainer tube to avoid out gassing of CO2 and the associated shift in pH. […] Electrophoresis was carried out using 4 to 20% polyacrylamide gels (Novex, Inc., San Diego, Calif.) run in Tris-glycine buffer containing SDS. Protein sequencing was carried out on bands transferred to PVDF membranes using a Procise 494 Sequencer (ABI division, PE Biosystems, Foster City, Calif.).

[4] = centrifugation of serum at 16,000 x g; type: in vivo, rat
Procedure: The effect of centrifugation on the serum mineral complex was investigated in serum samples obtained 6 h after administration of etidronate at doses of 8 mg/100 g and 32 mg/100 g body weight. At the lower dose, no significant amount of calcium, phosphate, or MGP was sedimented after centrifugation for 30 min at 16,000×g. At the higher dose, a well-defined translucent pellet was obtained after centrifugation for 30 min at 16,000×g. This pellet was dissolved in 1 ml of 50 mM HCl and analyzed for calcium, phosphate, and MGP.

[5] = test system: arotinoid-induced bone resorption; conditions: relative antiresorption potency in the rat, etidronate = 1; cited from earlier work
[6] = test system: normal bone mineralization; conditions: parenteral; cited from earlier work
[7] = 6.25 mg P/kg/day, 84 h after first vitamin D
[8] = 32 mg/100 gm sc, 6 h, 1 ml pooled serum prior to centrifugation
[9] = 32 mg/100 gm sc, 6 h, 16,000 x g 30 min

Compound: CC(O)(P(=O)(O)O)P(=O)(O)O [Etidronate, (1-hydroxyethylylidene)-bisphosphonate]
- Histology Score Observer #1 x ± S.D. ([1]; 0.25 mg P/kg/day sc): 3.5 ± 1.3
- Histology Score Observer #2 x ± S.D. ([1]; 0.25 mg P/kg/day sc): 4.5 ± 1.0
- Histology Score Observer #1 x ± S.D. ([1]; 1.25 mg P/kg/day sc): 1.8 ± 2.4
- Histology Score Observer #2 x ± S.D. ([1]; 1.25 mg P/kg/day sc): 2.0 ± 2.4
- Histology Score Observer #1 x ± S.D. ([1]; 6.25 mg P/kg/day sc): 0.3 ± 0.5
- Histology Score Observer #2 x ± S.D. ([1]; 6.25 mg P/kg/day sc): 0.1 ± 0.3
- extent of von Kossa staining in the abdominal aorta ([1]; 6.25 mg P/kg/day, highest dose tested): significantly reduced
- Serum Ca ([2]; 0.25 mg P/kg/day, 84 h): 13.7 ± 1.2 mg/dL
- Serum P ([2]; 0.25 mg P/kg/day, 84 h): 10.8 ± 0.5 mg/dL
- Serum Ca ([2]; 1.25 mg P/kg/day, 84 h): 13.5 ± 0.7 mg/dL
- Serum P ([2]; 1.25 mg P/kg/day, 84 h): 9.5 ± 0.3 mg/dL
- Serum Ca [2, 7]: 15.0 ± 0.5 mg/dL
- Serum P [2, 7]: 8.2 ± 0.4 mg/dL
- increase in serum calcium, phosphate and MGP compared with the 8 mg/100 g dose ([3]; 4 mg/100 g body weight, 6 h, data not shown): smaller increase
- elevation of serum calcium ([3]; 8 mg/100 g body weight sc): 1.8 fold
- elevation of serum phosphate ([3]; 8 mg/100 g body weight sc): 1.6 fold
- serum MGP ([3]; 8 mg/100 g body weight sc): 12 µg/mL
- serum calcium ([3]; 8 mg/100 g body weight sc): 4.3 mM
- serum phosphate ([3]; 8 mg/100 g body weight sc): 5.6 mM
- time at which serum mineral complex reaches maximal levels ([3]; 8 mg/100 g sc): 6 h
- time by which serum mineral complex is cleared from serum ([3]; 8 mg/100 g sc): ≤ 24 h
- time of peak level of MGP ([3]; 8 mg/100 g sc): 6 h
- time of peak serum BGP level ([3]; 8 mg/100 g sc): 1 h
- time to half of maximal serum MGP levels ([3]; 8 mg/100 g sc): 3 h
- time to half of maximal serum calcium and phosphate levels ([3]; 8 mg/100 g sc): 1 h
- phosphate above control levels ([3]; 8 mg/100 g sc, by 6 h): 59%
- total calcium above control levels ([3]; 8 mg/100 g sc, by 6 h): 76%
- maximum elevation of serum BGP ([3]; 8 mg/100 g sc, data not shown): 3 fold
- Ionic calcium ([3]; 1 h): 1.47 ± 0.04 mM
- total calcium ([3]; 1 h): 3.45 ± 0.34 mM
- Ionic calcium ([3]; 2 h): 1.51 ± 0.04 mM
- total calcium ([3]; 2 h): 4.05 ± 0.44 mM
- Ionic calcium ([3]; 6 h): 1.46 ± 0.03 mM
- total calcium ([3]; 6 h): 4.41 ± 0.43 mM
- time of maximal level in serum total calcium, phosphate and MGP ([3]; 32 mg/100 g sc): 6 to 9 h
- level of serum ionized calcium ([3]; 32 mg/100 g sc, 6 h): no increase
- serum levels of total calcium, phosphate and MGP ([3]; 32 mg/100 g sc, 24 h): remained substantially elevated
- increase in serum MGP levels ([3]; 32 mg/100 g, within 6 h): 36 fold
- increase in serum phosphate levels ([3]; 32 mg/100 g, within 6 h): 2.5 fold
- serum MGP ([3]; 32 mg/100 g, within 6 h): 18 µg/mL
- serum phosphate ([3]; 32 mg/100 g, within 6 h): 8.6 mM
- total serum calcium ([3]; 32 mg/100 g, within 6 h): 8.8 mM
- sedimentation of calcium, phosphate or MGP ([4]; 8 mg/100 g, 6 h serum, 30 minutes at 16,000 x g): unable to demonstrate the sedimentation
- Calcium, Initial Serum [4, 8]: 9.64 µmol
- MGP, Initial Serum [4, 8]: 16,200 ng
- Phosphate, Initial Serum [4, 8]: 7.49 µmol
- Calcium, Dissolved Pellet [4, 9]: 3.27 µmol
- Calcium, Supernatant [4, 9]: 6.88 µmol
- MGP, Dissolved Pellet [4, 9]: 14,400 ng
- MGP, Supernatant [4, 9]: 800 ng
- Phosphate, Dissolved Pellet [4, 9]: 1.68 µmol
- Phosphate, Supernatant [4, 9]: 5.84 µmol
- Bone Resorption Relative potency [5]: 1
- dose required to inhibit normal bone mineralization in vivo [6]: about 5 mg P/kg/day
